{"source": "patent US20060046976A1", "about": "“Method for increasing the bone mineral density and bone micro-architecture or connectivity of a mammal using N-acylated glucosamines” (priority 2004, published 2006)", "system": "SCW-arthritis rats", "assay": "Two-dimensional subchondral bone analysis (structure, connectivity/strut analysis, plate thickness) of proximal tibia, SCW-arthritis rats", "format": "in vivo, Lewis type rats", "key": {"[1]": {"conditions": "SCW + 20 mg, Middle section/lateral"}, "[2]": {"conditions": "SCW + 20 mg, Middle section/medial"}}, "data": [{"compound": "CCCC(=O)N[C@H]1C(O)O[C@H](CO)[C@@H](O)[C@@H]1O", "note": "(stereo partly drawn) [GlcNBu, N-butyryl-D-glucosamine]", "values": [{"measurement": "2D-BV/TV % loss", "setting": "SCW + 20 mg, Anterior/lateral", "value": 40, "unit": "%"}, {"measurement": "2D-BV/TV Mean ± SEM", "setting": "SCW + 20 mg, Anterior/lateral", "value": "23.7 ± 2.3", "unit": "%"}, {"measurement": "2D-Tb.N % loss", "setting": "SCW + 20 mg, Anterior/lateral", "value": 21, "unit": "%"}, {"measurement": "2D-Tb.N Mean ± SEM", "setting": "SCW + 20 mg, Anterior/lateral", "value": "5.8 ± 0.4 /mm"}, {"measurement": "2D-Tb.Th % loss", "setting": "SCW + 20 mg, Anterior/lateral", "value": 32, "unit": "%"}, {"measurement": "2D-Tb.Th Mean ± SEM", "setting": "SCW + 20 mg, Anterior/lateral", "value": "38.7 ± 1.7", "unit": "um"}, {"measurement": "End Points % loss", "setting": "SCW + 20 mg, Anterior/lateral", "value": "−134", "unit": "%"}, {"measurement": "End Points Mean ± SEM", "setting": "SCW + 20 mg, Anterior/lateral", "value": "36.2 ± 2.5 1/mm2"}, {"measurement": "Multiple points % loss", "setting": "SCW + 20 mg, Anterior/lateral", "value": 43, "unit": "%"}, {"measurement": "Multiple points Mean ± SEM", "setting": "SCW + 20 mg, Anterior/lateral", "value": "9.3 ± 1.6 1/mm2"}, {"measurement": "Node-node struts % loss", "setting": "SCW + 20 mg, Anterior/lateral", "value": 75, "unit": "%"}, {"measurement": "Node-node struts Mean ± SEM", "setting": "SCW + 20 mg, Anterior/lateral", "value": "0.8 ± 0.2", "unit": "mm/mm2"}, {"measurement": "Total Strut length % loss", "setting": "SCW + 20 mg, Anterior/lateral", "value": 30, "unit": "%"}, {"measurement": "Total Strut length Mean ± SEM", "setting": "SCW + 20 mg, Anterior/lateral", "value": "5.3 ± 0.4", "unit": "mm/mm2"}, {"measurement": "2D-BV/TV % loss", "setting": "SCW + 20 mg, Anterior/medial", "value": 33, "unit": "%"}, {"measurement": "2D-BV/TV Mean ± SEM", "setting": "SCW + 20 mg, Anterior/medial", "value": "27.2 ± 1.4", "unit": "%"}, {"measurement": "2D-Tb.N % loss", "setting": "SCW + 20 mg, Anterior/medial", "value": 12, "unit": "%"}, {"measurement": "2D-Tb.N Mean ± SEM", "setting": "SCW + 20 mg, Anterior/medial", "value": "5.6 ± 0.3 /mm"}, {"measurement": "2D-Tb.Th % loss", "setting": "SCW + 20 mg, Anterior/medial", "value": 29, "unit": "%"}, {"measurement": "2D-Tb.Th Mean ± SEM", "setting": "SCW + 20 mg, Anterior/medial", "value": "48.6 ± 1.6", "unit": "um"}, {"measurement": "End Points % loss", "setting": "SCW + 20 mg, Anterior/medial", "value": "−67", "unit": "%"}, {"measurement": "End Points Mean ± SEM", "setting": "SCW + 20 mg, Anterior/medial", "value": "22.5 ± 1.7 1/mm2"}, {"measurement": "Multiple points % loss", "setting": "SCW + 20 mg, Anterior/medial", "value": 42, "unit": "%"}, {"measurement": "Multiple points Mean ± SEM", "setting": "SCW + 20 mg, Anterior/medial", "value": "9.2 ± 1.0 1/mm2"}, {"measurement": "Node-node struts % loss", "setting": "SCW + 20 mg, Anterior/medial", "value": 47, "unit": "%"}, {"measurement": "Node-node struts Mean ± SEM", "setting": "SCW + 20 mg, Anterior/medial", "value": "1.2 ± 0.2", "unit": "mm/mm2"}, {"measurement": "Total Strut length % loss", "setting": "SCW + 20 mg, Anterior/medial", "value": 14, "unit": "%"}, {"measurement": "Total Strut length Mean ± SEM", "setting": "SCW + 20 mg, Anterior/medial", "value": "5.1 ± 0.3", "unit": "mm/mm2"}, {"measurement": "2D-BV/TV % loss", "setting": "[1]", "value": 13, "unit": "%"}, {"measurement": "2D-BV/TV Mean ± SEM", "setting": "[1]", "value": "24.9 ± 1.6", "unit": "%"}, {"measurement": "2D-Tb.N % loss", "setting": "[1]", "value": 2, "unit": "%"}, {"measurement": "2D-Tb.N Mean ± SEM", "setting": "[1]", "value": "4.6 ± 0.2 /mm"}, {"measurement": "2D-Tb.Th % loss", "setting": "[1]", "value": 11, "unit": "%"}, {"measurement": "2D-Tb.Th Mean ± SEM", "setting": "[1]", "value": "54.3 ± 2.8", "unit": "um"}, {"measurement": "End Points % loss", "setting": "[1]", "value": "−69", "unit": "%"}, {"measurement": "End Points Mean ± SEM", "setting": "[1]", "value": "17.5 ± 1.9 1/mm2"}, {"measurement": "Multiple points % loss", "setting": "[1]", "value": 16, "unit": "%"}, {"measurement": "Multiple points Mean ± SEM", "setting": "[1]", "value": "8.3 ± 1.1 1/mm2"}, {"measurement": "Node-node struts % loss", "setting": "[1]", "value": 3, "unit": "%"}, {"measurement": "Node-node struts Mean ± SEM", "setting": "[1]", "value": "1.0 ± 0.2", "unit": "mm/mm2"}, {"measurement": "Total Strut length % loss", "setting": "[1]", "value": 14, "unit": "%"}, {"measurement": "Total Strut length Mean ± SEM", "setting": "[1]", "value": "4.0 ± 0.2", "unit": "mm/mm2"}, {"measurement": "2D-BV/TV % loss", "setting": "[2]", "value": 31, "unit": "%"}, {"measurement": "2D-BV/TV Mean ± SEM", "setting": "[2]", "value": "29.2 ± 2.3", "unit": "%"}, {"measurement": "2D-Tb.N % loss", "setting": "[2]", "value": 1, "unit": "%"}, {"measurement": "2D-Tb.N Mean ± SEM", "setting": "[2]", "value": "4.6 ± 0.2 /mm"}, {"measurement": "2D-Tb.Th % loss", "setting": "[2]", "value": 30, "unit": "%"}, {"measurement": "2D-Tb.Th Mean ± SEM", "setting": "[2]", "value": "63.0 ± 4.0", "unit": "um"}, {"measurement": "End Points % loss", "setting": "[2]", "value": "−184", "unit": "%"}, {"measurement": "End Points Mean ± SEM", "setting": "[2]", "value": "14.1 ± 2.3 1/mm2"}, {"measurement": "Multiple points % loss", "setting": "[2]", "value": 13, "unit": "%"}, {"measurement": "Multiple points Mean ± SEM", "setting": "[2]", "value": "9.9 ± 1.1 1/mm2"}, {"measurement": "Node-node struts % loss", "setting": "[2]", "value": 42, "unit": "%"}, {"measurement": "Node-node struts Mean ± SEM", "setting": "[2]", "value": "1.2 ± 0.2", "unit": "mm/mm2"}, {"measurement": "Total Strut length % loss", "setting": "[2]", "value": 11, "unit": "%"}, {"measurement": "Total Strut length Mean ± SEM", "setting": "[2]", "value": "4.2 ± 0.3", "unit": "mm/mm2"}, {"measurement": "2D-BV/TV % loss", "setting": "SCW + 20 mg, Posterior/lateral", "value": 21, "unit": "%"}, {"measurement": "2D-BV/TV Mean ± SEM", "setting": "SCW + 20 mg, Posterior/lateral", "value": "24.9 ± 1.5", "unit": "%"}, {"measurement": "2D-Tb.N % loss", "setting": "SCW + 20 mg, Posterior/lateral", "value": 7, "unit": "%"}, {"measurement": "2D-Tb.N Mean ± SEM", "setting": "SCW + 20 mg, Posterior/lateral", "value": "4.8 ± 0.2 /mm"}, {"measurement": "2D-Tb.Th % loss", "setting": "SCW + 20 mg, Posterior/lateral", "value": 19, "unit": "%"}, {"measurement": "2D-Tb.Th Mean ± SEM", "setting": "SCW + 20 mg, Posterior/lateral", "value": "51.8 ± 1.6", "unit": "um"}, {"measurement": "End Points % loss", "setting": "SCW + 20 mg, Posterior/lateral", "value": "−100", "unit": "%"}, {"measurement": "End Points Mean ± SEM", "setting": "SCW + 20 mg, Posterior/lateral", "value": "20.0 ± 1.8 1/mm2"}, {"measurement": "Multiple points % loss", "setting": "SCW + 20 mg, Posterior/lateral", "value": 55, "unit": "%"}, {"measurement": "Multiple points Mean ± SEM", "setting": "SCW + 20 mg, Posterior/lateral", "value": "7.8 ± 0.8 1/mm2"}, {"measurement": "Node-node struts % loss", "setting": "SCW + 20 mg, Posterior/lateral", "value": 30, "unit": "%"}, {"measurement": "Node-node struts Mean ± SEM", "setting": "SCW + 20 mg, Posterior/lateral", "value": "0.9 ± 0.1", "unit": "mm/mm2"}, {"measurement": "Total Strut length % loss", "setting": "SCW + 20 mg, Posterior/lateral", "value": 11, "unit": "%"}, {"measurement": "Total Strut length Mean ± SEM", "setting": "SCW + 20 mg, Posterior/lateral", "value": "4.3 ± 0.2", "unit": "mm/mm2"}, {"measurement": "2D-BV/TV % loss", "setting": "SCW + 20 mg, Posterior/medial", "value": 20, "unit": "%"}, {"measurement": "2D-BV/TV Mean ± SEM", "setting": "SCW + 20 mg, Posterior/medial", "value": "36.2 ± 1.6", "unit": "%"}, {"measurement": "2D-Tb.N % loss", "setting": "SCW + 20 mg, Posterior/medial", "value": 3, "unit": "%"}, {"measurement": "2D-Tb.N Mean ± SEM", "setting": "SCW + 20 mg, Posterior/medial", "value": "6.2 ± 0.2 /mm"}, {"measurement": "2D-Tb.Th % loss", "setting": "SCW + 20 mg, Posterior/medial", "value": 23, "unit": "%"}, {"measurement": "2D-Tb.Th Mean ± SEM", "setting": "SCW + 20 mg, Posterior/medial", "value": "59.3 ± 2.3", "unit": "um"}, {"measurement": "End Points % loss", "setting": "SCW + 20 mg, Posterior/medial", "value": "−216", "unit": "%"}, {"measurement": "End Points Mean ± SEM", "setting": "SCW + 20 mg, Posterior/medial", "value": "16.2 ± 2.1 1/mm2"}, {"measurement": "Multiple points % loss", "setting": "SCW + 20 mg, Posterior/medial", "value": 36, "unit": "%"}, {"measurement": "Multiple points Mean ± SEM", "setting": "SCW + 20 mg, Posterior/medial", "value": "12.6 ± 1.4 1/mm2"}, {"measurement": "Node-node struts % loss", "setting": "SCW + 20 mg, Posterior/medial", "value": 37, "unit": "%"}, {"measurement": "Node-node struts Mean ± SEM", "setting": "SCW + 20 mg, Posterior/medial", "value": "1.7 ± 0.3", "unit": "mm/mm2"}, {"measurement": "Total Strut length % loss", "setting": "SCW + 20 mg, Posterior/medial", "value": 10, "unit": "%"}, {"measurement": "Total Strut length Mean ± SEM", "setting": "SCW + 20 mg, Posterior/medial", "value": "5.7 ± 0.3", "unit": "mm/mm2"}, {"measurement": "2D-BV/TV % loss", "setting": "SCW + 200 mg, Anterior/lateral", "value": 37, "unit": "%"}, {"measurement": "2D-BV/TV Mean ± SEM", "setting": "SCW + 200 mg, Anterior/lateral", "value": "24.8 ± 3.4", "unit": "%"}, {"measurement": "2D-Tb.N % loss", "setting": "SCW + 200 mg, Anterior/lateral", "value": 20, "unit": "%"}]}]}
